Like-named read-outs stand apart in the source and are kept apart here.
Experiments:
[1] = format: in vivo, human (healthy subjects); settings: for AUC(0-t) / AUC(0-inf) / Cmax / half-life: human, plasma, oral; for AUC(0-t): AUCt
[2] = Multiple-dose; format: in vivo, human (healthy subjects); settings: for AUC(0-t) / Cmax / half-life at 7 days: human, plasma, oral; for AUC(0-t): AUC0–24, steady state (day 7); for Cmax: steady state (day 7); for half-life at 7 days: t1/2, steady state; for Cmin: steady state (day 7, 24-hour period)
[3] = format: in vivo; settings: human, not told, po
[4] = cited from earlier work
[5] = cited from earlier work; remark: listed apart in the source
[6] = cited from earlier work; remark: listed apart in the source
[7] = system: cytochrome P450 (CYP) 3A; settings: in vitro; cited from earlier work
[8] = system: CYP2D6; settings: in vitro; cited from earlier work
[9] = 6 and 12 mg twice daily, IR formulation, background methotrexate; cited from earlier work
[10] = 12 mg, single 12 mg IR, fasting, n = 11, mean ± SD
[11] = 15 mg, single 15 mg ER, fasting, n = 11, mean ± SD
[12] = 24 mg, single 24 mg IR, fasting, n = 12, mean ± SD
[13] = 30 mg, single 30 mg ER after high-fat breakfast, n = 12, mean ± SD
[14] = 30 mg, single 30 mg ER, fasting, n = 12, mean ± SD
[15] = 6 mg, 6 mg twice-daily IR, fasting, n = 11, mean ± SD
[16] = 12 mg, 12 mg twice-daily IR, fasting, n = 11, mean ± SD
[17] = 15 mg, 15 mg once-daily ER, fasting, n = 12, mean ± SD
[18] = 15 mg, 15 mg once-daily ER, nonfasting, n = 12, mean ± SD
[19] = 30 mg, 30 mg once-daily ER, fasting, n = 11, mean ± SD
[20] = 30 mg, 30 mg once-daily ER, nonfasting, n = 12, mean ± SD

CC[C@@H]1CN(C(=O)NCC(F)(F)F)C[C@@H]1c1cnc2cnc3[nH]ccc3n12 [Upadacitinib]
increase in AUC and Cmax after a high-fat meal compared with fasting ([1]; ER formulation): ~20%
AUC(0-t) [1, 10]: 231 ± 34.5 ng·h/mL
AUC(0-inf) [1, 10]: 234 ± 34.6 ng·h/mL
Cmax [1, 10]: 64.6 ± 10.3 ng/mL
half-life ([1]; 12 mg, t1/2, single 12 mg IR, fasting, n = 11, mean ± SD): 18.3 ± 13.3 h
AUC(0-t) [1, 11]: 227 ± 60 ng·h/mL
AUC(0-inf) [1, 11]: 242 ± 63.6 ng·h/mL
half-life ([1]; 15 mg, t1/2, single 15 mg ER, fasting, n = 11, mean ± SD): 21.9 ± 23.1 h
AUC(0-inf) [1, 12]: 524 ± 133 ng·h/mL
Cmax [1, 12]: 176 ± 65.6 ng/mL
half-life ([1]; 24 mg, t1/2, single 24 mg IR, fasting, n = 12, mean ± SD): 15.3 ± 13.6 h
AUC(0-t) [1, 13]: 564 ± 145 ng·h/mL
AUC(0-t) [1, 14]: 477 ± 130 ng·h/mL
AUC(0-inf) [1, 14]: 491 ± 133 ng·h/mL
Cmax [1, 13]: 76.8 ± 29.6 ng/mL
Cmax [1, 14]: 63.7 ± 21.1 ng/mL
half-life ([1]; 30 mg, t1/2, single 30 mg ER after high-fat breakfast, n = 12, mean ± SD): 15.9 ± 11 h
half-life ([1]; 30 mg, t1/2, single 30 mg ER, fasting, n = 12, mean ± SD): 18.1 ± 14.5 h
difference of central values for Cmax and Cmin, ER once daily vs IR twice daily ([2]; 15 and 30 mg once daily vs 6 and 12 mg twice daily, fasting, steady state): ≤ 13%
AUC(0-t) [2, 15]: 288 ± 63.5 ng·h/mL
Cmax [2, 15]: 33.9 ± 8.8 ng/mL
half-life at 7 days [2, 15]: 24.5 ± 18.1 h
AUC(0-t) [2, 16]: 534 ± 97.8 ng·h/mL
Cmax [2, 16]: 73.9 ± 14.2 ng/mL
half-life at 7 days [2, 16]: 11.5 ± 9.2 h
AUC(0-t) [2, 17]: 279 ± 71.4 ng·h/mL
AUC(0-t) [2, 18]: 317 ± 68.1 ng·h/mL
Cmax [2, 17]: 31.9 ± 11.2 ng/mL
Cmax [2, 18]: 36 ± 8.8 ng/mL
half-life at 7 days [2, 17]: 16.9 ± 12 h
half-life at 7 days [2, 18]: 15.1 ± 10.1 h
AUC(0-t) [2, 19]: 525 ± 123 ng·h/mL
AUC(0-t) [2, 20]: 582 ± 172 ng·h/mL
Cmax [2, 19]: 68.2 ± 20.5 ng/mL
Cmax [2, 20]: 79.5 ± 31.8 ng/mL
half-life at 7 days [2, 19]: 22.9 ± 21.1 h
steady state achieved by day ([2]; once-daily dosing of ER formulation, predose concentrations): ≤ 4 days
Cmin ([2]; 6 mg twice-daily IR, fasting, n = 11, mean ± SD): 2.7 ± 0.6
Cmin ([2]; 12 mg twice-daily IR, fasting, n = 11, mean ± SD): 3.8 ± 2.2
Cmin ([2]; 15 mg once-daily ER, fasting, n = 12, mean ± SD): 3.1 ± 1.1
Cmin ([2]; 15 mg once-daily ER, nonfasting, n = 12, mean ± SD): 2.8 ± 1.2
Cmin ([2]; 30 mg once-daily ER, fasting, n = 11, mean ± SD): 3.8 ± 1.6
Cmin ([2]; 30 mg once-daily ER, nonfasting, n = 12, mean ± SD): 4.6 ± 1.8
bioavailability [3]: 70 to 80%
dose eliminated unchanged in urine ([4]; IR formulation): approximately 20%
time to maximum plasma concentration ([4]; IR formulation): ≤ 2 h
accumulation in plasma ([4]; twice-daily dosing of the IR formulation): no significant accumulation
decrease in upadacitinib AUC with rifampin ([5]; CYP inducer rifampin): 60%
decrease of Cmax by food ([5]; IR formulation): approximately 20%
impact of food on AUC ([5]; IR formulation): no impact
increase in upadacitinib AUC with ketoconazole ([5]; strong CYP3A inhibitor ketoconazole): 75%
effect of CYP2D6 metabolic phenotype on apparent oral clearance [6]: no effect
residual error in upadacitinib concentrations [6]: 31%
intersubject variability of apparent central volume of distribution ([6]; healthy subjects): 14%
intersubject variability of apparent oral clearance ([6]; healthy subjects): 16%
higher AUC compared with subjects with normal renal function ([6]; mild renal impairment, estimated): 16%
higher AUC compared with subjects with normal renal function ([6]; moderate renal impairment, estimated): 32%
apparent oral clearance lower in RA patients compared with healthy subjects ([6]; population pharmacokinetic analyses, estimated): 24%
intersubject variability of apparent central volume of distribution ([6]; subjects with RA): 27%
intersubject variability of apparent oral clearance ([6]; subjects with RA): 26%
substrate of CYP3A [7]: nonsensitive substrate
contribution of CYP2D6 to metabolism [8]: minor contribution
efficacy in subjects with RA [9]: maximal efficacy
